Molecular target: Leucine-rich repeat serine/threonine-protein kinase 2 (Homo sapiens, UniProt Q5S007, G2019S)
Assay: Inhibition of GST20-tagged truncated human LRRK2 G2019S mutant using fluorescein labeled LRRKtide peptide as substrate by Lantha screen assay

Leucine-rich repeat serine/threonine-protein kinase 2, sequence (Q5S007 whole entry G2019S, the tested form may be a part): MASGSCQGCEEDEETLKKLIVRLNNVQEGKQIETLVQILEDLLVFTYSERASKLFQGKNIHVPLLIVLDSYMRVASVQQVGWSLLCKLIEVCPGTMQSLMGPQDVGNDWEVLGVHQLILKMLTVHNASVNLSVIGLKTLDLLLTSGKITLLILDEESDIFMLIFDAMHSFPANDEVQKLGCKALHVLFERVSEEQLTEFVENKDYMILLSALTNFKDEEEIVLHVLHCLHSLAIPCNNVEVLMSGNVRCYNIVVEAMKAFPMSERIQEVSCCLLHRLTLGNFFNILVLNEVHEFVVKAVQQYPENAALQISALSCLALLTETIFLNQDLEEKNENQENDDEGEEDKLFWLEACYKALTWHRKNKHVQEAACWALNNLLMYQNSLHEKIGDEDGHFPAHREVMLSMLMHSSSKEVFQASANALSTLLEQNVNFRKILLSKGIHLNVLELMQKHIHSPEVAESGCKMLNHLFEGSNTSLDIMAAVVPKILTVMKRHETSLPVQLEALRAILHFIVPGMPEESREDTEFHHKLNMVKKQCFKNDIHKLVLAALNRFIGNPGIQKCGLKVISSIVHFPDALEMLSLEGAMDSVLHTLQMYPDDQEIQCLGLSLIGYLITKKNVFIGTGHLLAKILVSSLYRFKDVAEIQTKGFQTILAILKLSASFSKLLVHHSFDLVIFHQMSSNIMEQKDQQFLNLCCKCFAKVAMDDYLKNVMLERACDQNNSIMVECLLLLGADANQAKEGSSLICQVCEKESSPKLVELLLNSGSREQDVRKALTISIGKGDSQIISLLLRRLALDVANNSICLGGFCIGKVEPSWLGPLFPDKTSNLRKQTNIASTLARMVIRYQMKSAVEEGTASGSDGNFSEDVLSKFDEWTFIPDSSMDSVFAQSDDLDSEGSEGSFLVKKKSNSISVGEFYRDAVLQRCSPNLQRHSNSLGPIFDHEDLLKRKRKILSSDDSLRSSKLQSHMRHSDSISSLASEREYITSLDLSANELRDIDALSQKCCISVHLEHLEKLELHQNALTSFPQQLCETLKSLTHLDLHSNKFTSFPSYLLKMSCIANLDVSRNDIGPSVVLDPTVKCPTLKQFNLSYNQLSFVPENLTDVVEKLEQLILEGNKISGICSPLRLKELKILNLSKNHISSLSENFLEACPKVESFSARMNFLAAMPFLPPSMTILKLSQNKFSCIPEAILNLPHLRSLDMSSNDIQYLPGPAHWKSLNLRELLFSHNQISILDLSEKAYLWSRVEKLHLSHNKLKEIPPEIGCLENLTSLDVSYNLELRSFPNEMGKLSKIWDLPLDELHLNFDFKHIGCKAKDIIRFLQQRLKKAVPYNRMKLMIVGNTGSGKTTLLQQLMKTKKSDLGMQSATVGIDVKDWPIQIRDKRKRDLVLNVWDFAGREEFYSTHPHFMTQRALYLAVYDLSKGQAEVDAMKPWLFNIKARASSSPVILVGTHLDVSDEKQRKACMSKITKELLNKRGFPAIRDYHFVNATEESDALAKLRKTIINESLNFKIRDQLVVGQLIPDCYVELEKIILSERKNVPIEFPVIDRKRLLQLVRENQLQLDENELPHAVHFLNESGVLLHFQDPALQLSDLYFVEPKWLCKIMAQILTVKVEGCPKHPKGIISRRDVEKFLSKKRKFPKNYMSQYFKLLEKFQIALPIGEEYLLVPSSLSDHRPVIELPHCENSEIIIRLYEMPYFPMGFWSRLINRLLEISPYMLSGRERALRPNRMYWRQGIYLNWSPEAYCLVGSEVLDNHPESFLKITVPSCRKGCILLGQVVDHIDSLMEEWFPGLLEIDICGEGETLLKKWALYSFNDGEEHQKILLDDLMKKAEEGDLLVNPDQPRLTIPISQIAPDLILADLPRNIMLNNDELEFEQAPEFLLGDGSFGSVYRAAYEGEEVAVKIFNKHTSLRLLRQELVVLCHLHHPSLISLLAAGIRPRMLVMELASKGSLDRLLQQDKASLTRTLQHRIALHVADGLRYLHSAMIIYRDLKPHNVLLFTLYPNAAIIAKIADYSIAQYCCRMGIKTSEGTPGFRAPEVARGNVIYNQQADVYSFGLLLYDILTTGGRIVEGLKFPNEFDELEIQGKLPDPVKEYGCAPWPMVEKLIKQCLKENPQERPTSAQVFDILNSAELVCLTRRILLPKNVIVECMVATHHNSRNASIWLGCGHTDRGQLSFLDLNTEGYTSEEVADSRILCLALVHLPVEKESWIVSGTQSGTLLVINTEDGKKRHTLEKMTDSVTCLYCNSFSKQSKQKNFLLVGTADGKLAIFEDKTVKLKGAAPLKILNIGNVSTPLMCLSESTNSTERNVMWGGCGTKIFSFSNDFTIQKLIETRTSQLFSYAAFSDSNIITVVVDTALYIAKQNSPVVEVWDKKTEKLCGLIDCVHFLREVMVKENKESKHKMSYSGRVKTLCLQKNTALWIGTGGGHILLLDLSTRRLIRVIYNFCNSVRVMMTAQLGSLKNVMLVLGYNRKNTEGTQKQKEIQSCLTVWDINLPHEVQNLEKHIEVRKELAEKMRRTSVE

Compound: C[C@@]1(N2CC[C@@H](c3cc4cc(NC(=O)C5CC56CC6)ncc4cc3Cl)[C@H](F)C2)COC[C@@H]1O (stereo partly specified)
- IC50: 0.0813 nM

Source: ChEMBL document CHEMBL5247684, “Novel C-Linked Isoquinoline Amides as LRRK2 Inhibitors for Treating Parkinson's Disease” (ACS Med Chem Lett, 2023)
